In patent US20260364124A1, “ANTI-C. DIFFICILE SMALL MOLECULE METABOLITES FROM DIET AND GUT MICROBIOME” (The Children's Medical Center Corporation, priority 2023, published 2026):
“Also recorded” adds a separate entry of the source.

Tested on: B. uniformis AgshD
Assay: In vitro aglycone liberation by B. uniformis gshD deletion mutant (LC-MS)
Set-up: species or system Bacteroides uniformis ATCC 8492
Settings: role: substrate; B. uniformis AgshD (FIGS. 5A, 5B)
Method: FIGS. 5A and 5B show microbiome-mediated polyphenol aglycone liberation. […] Step 2: Spent media was filter-sterilized. Step 3: C. difficile was grown in spent media from either vehicle or polydatin (top).
Generation of Bacteroides gene deletion mutants: Clean deletion mutants were created by allelic replacement whereby Bacteroides uniformis ATCC 8492 gshD (BACUNI_00919)was deleted. A modified pKNOCK-bla-ermGb suicide vector, pKNOCK-bla-ermGb_pheS*, that was previously engineered with a counter-selection system mediated by a variant phenylalanyl-tRNA synthetase (PheSA303G), lethal in the presence of 4-chloro-phenylalanine was leveraged. To generate deletion constructs, 1 kb regions flanking the genomic region-of-interest were amplified by PCR (Platinum SuperFi PCR Master Mix), purified, and cloned into the pKNOCK-bla-ermGb_pheS* plasmid in a three-piece ligation reaction. To mobilize resulting plasmids into Bacteroides, a triparental mating strategy was implemented. Overnight cultures of Bacteroides grown in BSG were diluted 50-fold into fresh pre-reduced BSG and grown to early exponential phase (OD600 ~0.1). The recipient strain was centrifuged at 4,000 rpm for 5 minutes and resuspended in 200 μL of 1× PBS. One-day-old E. coliDH5α lambda pir donor strain and E. coliDH5α helper strain with pRK 231 were scrapped from LB agar plates into 200 μL of 1× PBS. […]

OC[C@H]1O[C@@H](Oc2cc(O)cc(/C=C/c3ccc(O)cc3)c2)[C@H](O)[C@@H](O)[C@@H]1O [polydatin]
liberation of resveratrol from polydatin by gshD mutant: lacking the ability to metabolize polydatin; also recorded: ablated in B. uniformis AgshD
